System: MAG biosynthesis (DGL)
Test: THL oral gavage: levels of MAGs in jejunum mucosa, lung and plasma
Type: in vivo, mouse
Procedure: Adult C57BL/6J male mice were food-deprived for 24 h prior to harvest with ad libitum access to water. To prevent coprophagia, animals were maintained on elevated wire-bottom cages for a 72-hour acclimation period and during the 24-hour food deprivation. One hour prior to harvest, mice received an oral gavage (100 μL of 10 mg/mL) of the DGL inhibitor, THL, in polyethylene glycol (PEG) or PEG alone as control. Jejunum intestinal epithelium and lungs were harvested as described above (see section “Tissue Harvest and Preparation for Enzyme Assays”).
Frozen tissue samples were weighed and homogenized in 1.0 mL of methanol containing the internal standards [^2H5]-2-AG (500 pmol), [^2H4]-AEA (1 pmol), and [^2H4]-OEA (10 pmol). Lipids were extracted using chloroform (2.0 mL) prior to being washed with 1.0 mL 0.2-micron ultra-purified water. Following centrifugation (1,500 × g, 15 min, 4°C), the lower organic phase was collected and dried under N2 steam (99.998% pure). A second chloroform wash (1.0 mL) was then performed followed by another centrifugation (1,500 × g, 15 min, 4°C) and collection of the lower phase. Samples were reconstituted in 2.0 mL of chloroform and purified via open-bed silica gel column chromatography. Columns were washed with a 9:1 chloroform:methanol mixture to elute MAGs and FAEs for collection. Collected eluates were dried under N2 steam (99.998% pure) and resuspended in 0.2 mL of methanol:chloroform (1:1) prior to analysis via UPLC-MS/MS (see section “Quantitation of MAGs and FAEs”).
Data was acquired using equipment described above (see section “UPLC-MS/MS Detection of Analytes”) and using the elution protocol described above (see section “Quantitation of MAG Biosynthetic Enzyme Activity Assay Products”). Cone voltage and collision energy for each analyte are as follows, respectively: AEA = 30 v, 14 v; [^2H4]-AEA = 26 v, 16v; OEA = 28 v, 16 v; [^2H4]-OEA = 48 v, 14 v; DHEA = 30 v, 50 v; 2-AG (20:4) = 30 v, 12 v; [^2H5]-2-AG = 25 v, 44v; 2-DG (22:6) = 34 v, 14 v; 2-PG (16:0) = 18 v, 10 v; 2-OG (18:1) = 42 v, 10 v; 2-LG (18:2) = 30 v, 10 v. MS/MS detection was in positive ion mode and capillary voltage set at 0.1 kV. Extracted ion chromatograms were used to quantify AEA (m/z = 348.3 > 62.0), [^2H4]-AEA (m/z = 352.3 > 66.1), OEA (m/z = 326.4 > 62.1), [^2H4]-OEA (m/z = 330.4 > 66.0), DHEA (m/z = 372.3 > 91.0), 2-AG (m/z = 379.3 > 287.3), [^2H5]-2-AG (m/z = 384.3 > 93.4), 2-DG (m/z = 403.3 > 311.1), 2-PG (m/z = 331.3 > 239.3), 2-OG (m/z = 357.4 > 265.2), and 2-LG (m/z = 355.3 > 263.3). Quantitation occurred using a stable isotope dilution method to detect protonated adducts of the ions [M + H] + in MRM mode. Acyl migration is known to occur in many MAG species following silica-gel purification, therefore the sum of 1-AG and 2-AG, 1-PG and 2-PG, 1-OG and 2-OG, and 1-DG and 2-DG are reported ([Stella et al., 1997]). The established lower limit of quantitation (LLOQ: signal to noise ratio >10) for 2-AG, 2-DG, 2-PG, 2-OG, and 2-LG was 0.5 pmol. The LLOQ for AEA, OEA, and DHEA was 0.008 pmol.

[1] = THL 1 mg oral, 1 h prior to tissue harvest

With `CCCCCCCCCCC[C@@H](C[C@@H]1OC(=O)[C@H]1CCCCCC)OC(=O)[C@H](CC(C)C)NC=O` [THL, tetrahydrolipstatin] the “2-LG level in lung” value (THL 1 mg oral gavage 1 h prior to harvest, vehicle 0.51 ± 0.10) was 1.13 ± 0.35 nmol/g, the “2-DG level in lung” value (THL 1 mg oral gavage 1 h prior to harvest, vehicle 1.17 ± 0.07) was 1.02 ± 0.07 nmol/g and the “2-OG level in lung” value (THL 1 mg oral gavage 1 h prior to harvest, vehicle 1.81 ± 0.13) was 2.25 ± 0.37 nmol/g. For the same compound, the “2-OG level in plasma” value (THL 1 mg oral gavage 1 h prior to harvest, vehicle 2.71 ± 0.68) was 1.53 ± 0.22 pmol/mL, the “2-PG level in lung” value (THL 1 mg oral gavage 1 h prior to harvest, vehicle 3.15 ± 0.26) was 2.51 ± 0.15 nmol/g and the “2-AG level in lung” value (THL 1 mg oral gavage 1 h prior to harvest, vehicle 4.47 ± 0.44) was 3.73 ± 0.37 nmol/g. For the same compound, the “2-AG level in plasma” value (THL 1 mg oral gavage 1 h prior to harvest, vehicle 31.59 ± 3.93) was 29.34 ± 2.18 pmol/mL, the “2-DG level in plasma” value (THL 1 mg oral gavage 1 h prior to harvest, vehicle 44.25 ± 11.63) was 32.82 ± 1.67 pmol/mL and the “2-PG level in plasma” value (THL 1 mg oral gavage 1 h prior to harvest, vehicle 46.63 ± 4.97) was 51.99 ± 9.87 pmol/mL. The “2-LG level in plasma” value (THL 1 mg oral gavage 1 h prior to harvest, vehicle 156.32 ± 27.64) was 105.12 ± 11.41 pmol/mL, the “effect on levels of MAGs in lung vs vehicle” value [1] was “no significant changes” and the “effect on plasma MAGs vs vehicle” value [1] was “No significant changes”. For the same compound, the “effect on levels of all MAGs in jejunum mucosa vs vehicle” value (THL 1 mg oral, 1 h prior to tissue harvest, 24 h food deprived mice) was “reduced”, the “2-DG level in jejunum mucosa” value (mice food deprived 24 h, THL 1 mg oral gavage 1 h prior to harvest, vehicle 7.53 ± 1.40) was 0.85 ± 0.13 nmol/g and the “2-PG level in jejunum mucosa” value (mice food deprived 24 h, THL 1 mg oral gavage 1 h prior to harvest, vehicle 13.52 ± 2.60) was 4.91 ± 0.51 nmol/g. The “2-AG level in jejunum mucosa” value (mice food deprived 24 h, THL 1 mg oral gavage 1 h prior to harvest, vehicle 45.81 ± 7.02) was 8.04 ± 1.52 nmol/g, the “2-OG level in jejunum mucosa” value (mice food deprived 24 h, THL 1 mg oral gavage 1 h prior to harvest, vehicle 100.71 ± 28.93) was 5.56 ± 1.10 nmol/g and the “2-LG level in jejunum mucosa” value (mice food deprived 24 h, THL 1 mg oral gavage 1 h prior to harvest, vehicle 194.08 ± 40.11) was 24.61 ± 7.48 nmol/g.

Source: article PMC8317065, “UPLC-MS/MS Method for Analysis of Endocannabinoid and Related Lipid Metabolism in Mouse Mucosal Tissue” (Frontiers in Physiology, 2021)
